Experimental data taken from patent US11884675B2, “Heterocyclic compounds as triggering receptor expressed on myeloid cells 2 agonists and methods of use” (AMGEN INC., priority 2020, dated 2024).

These compounds were tested against hTREM2 (Homo sapiens, UniProt Q9NZC2) (assay: TREM2 activity by cellular Syk phosphorylation (AlphaScreen/AlphaLISA) in TREM2/DAP12-HEK cells, used for Examples 1-305). Conditions: HEK293 Cells.
Assay type: cell-based
Set-up: expressed in transfected cells
In short: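 Single-cell-cloned HEK293 cells overexpressing TREM2 and DAP12, seeded 20 h, exposed to test articles (1% final DMSO) for 45 min at room temperature. Lysates read for phospho-Syk (Tyr525/526) vs total Syk by AlphaScreen. Signal normalised as percent of control between isotype IgG and 100 nM anti-TREM2 antibody; 4-parameter logistic fit.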

Sequence of hTREM2 (Q9NZC2 19-230): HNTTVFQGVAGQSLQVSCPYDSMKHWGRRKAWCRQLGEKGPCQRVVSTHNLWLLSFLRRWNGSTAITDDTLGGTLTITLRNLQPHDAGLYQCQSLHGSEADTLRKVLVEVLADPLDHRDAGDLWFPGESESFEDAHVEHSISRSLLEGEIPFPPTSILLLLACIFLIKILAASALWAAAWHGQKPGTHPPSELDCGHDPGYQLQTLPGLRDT
Sequence of hTREM2 (O43914 22-113 partner): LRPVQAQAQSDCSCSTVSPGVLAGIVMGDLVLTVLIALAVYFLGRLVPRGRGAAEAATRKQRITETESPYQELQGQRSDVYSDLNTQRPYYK

| SMILES | EC50 | hTREM2 Emax |
| --- | --- | --- |
| Cc1cnc2c(-c3ccc(Cl)cc3F)nc([C@@H]3CCO[C@H](c4cnn(C)c4)C3)cc2n1 [Example 248, 5-(4-chloro-2-fluorophenyl)-2-methyl-7-((2S,4R)-2-(1-methyl-1H-pyrazol-4-yl)tetrahydro-2H-pyran-4-yl)pyrido[3,4-b] pyrazine] | 500 to 3000 nM | +++ (Emax>150 and ≤250) |
| Cc1cc([C@H]2CN(c3nc(C45CC(C(F)(F)F)(C4)C5)c4nc(C)c(C)nc4n3)CCO2)ccn1 [Example 65] | ≤ 50 nM | +++ (Emax>150 and ≤250) |
| Cc1nc2nc(N3CCO[C@@H](c4cnn(C)c4)C3)nc(C3CCC(Cl)CC3)c2nc1C (mixture of isomers) [Example 165, 4-(trans-4-chlorocyclohexyl)-6,7-dimethyl-2-((2S)-2-(1-methyl-1H-pyrazol-4-yl)-4-morpholinyl) pteridine] | ≤ 50 nM | +++ (Emax>150 and ≤250) |
| Cc1cc([C@H]2CN(c3nc(C45CC(C(F)(F)F)(C4)C5)c4ccc(C)nc4n3)CCO2)ccn1 [Example 102, 7-methyl-2-((2S)-2-(2-methyl-4-pyridinyl)-4-morpholinyl)-4-(3-(trifluoromethyl)bicyclo[1.1.1]pentan-1-yl)pyrido[2,3-d]pyrimidine] | ≤ 50 nM | + (Emax>45 and ≤100) |
| Cc1ccc(-c2nc(N3CCO[C@@H](c4ccnc(C)c4)C3)nc3nc(C)cnc23)c(F)c1 [Example 10, 4-(2-fluoro-4-methylphenyl)-7-methyl-2-((2S)-2-(2-methyl-4-pyridinyl)-4-morpholinyl)pteridine] | ≤ 50 nM | +++ (Emax>150 and ≤250) |
| Cc1cc2c(-c3ccc(Cl)cc3F)nc(N3CCO[C@@H](c4cnn(C)c4)C3)nc2nc1C [Example 103, 4-(4-chloro-2-fluorophenyl)-6,7-dimethyl-2-((2S)-2-(1-methyl-1H-pyrazol-4-yl)-4-morpholinyl)pyrido[2,3-d]pyrimidine] | ≤ 50 nM | ++++ (Emax>250) |
| Cc1cc([C@@H]2C[C@H](c3cc4nc(C)c(C)nc4c(-c4ccc(Cl)cc4F)n3)CCO2)ccn1 (relative stereo) [Example 217, 5-(4-chloro-2-fluorophenyl)-2,3-dimethyl-7-((2S,4R)-2-(2-methyl-4-pyridinyl)tetrahydro-2H-pyran-4-yl)pyrido [3,4-b]pyrazine] | 50 to 500 nM | +++ (Emax>150 and ≤250) |
| Cc1nc2nc([C@H]3C[C@@H](C)O[C@@H](c4cnn(C)c4)C3)nc(-c3ccc(Cl)cc3F)c2nc1C (single isomer, unassigned) [Example 216] | ≤ 50 nM | +++ (Emax>150 and ≤250) |
| CCn1cc([C@H]2CN(c3cc4nc(C)cnc4c(-c4ccc(Cl)cc4F)n3)CCO2)cn1 [Example 75, 5-(4-chloro-2-fluorophenyl)-7-((2S)-2-(1-ethyl-1H-pyrazol-4-yl)-4-morpholinyl)-2-methylpyrido[3,4-b]pyrazine] | 50 to 500 nM | ++++ (Emax>250) |
| Cc1ncc([C@H]2C[C@@H](c3nc(-c4ccc(Cl)cc4F)c4nc(C)c(C)nc4n3)CCO2)cn1 (single isomer, unassigned) [Example 209] | 50 to 500 nM | +++ (Emax>150 and ≤250) |
| Cc1nc2nc(N3CCO[C@@H](c4cnn(C)c4)C3)nc([C@H]3C[C@@H](C(F)F)C3)c2nc1C [Example 44, 4-(cis-3-(difluoromethyl)cyclobutyl)-6,7-dimethyl-2-((2S)-2-(1-methyl-1H-pyrazol-4-yl)-4-morpholinyl)pteridine] | 50 to 500 nM | +++ (Emax>150 and ≤250) |
| Cc1cc([C@@H]2C[C@@H](c3nc(-c4ccc(F)cc4F)c4nc(C)c(C)nc4n3)CCO2)ccn1 (single isomer, unassigned) [Example 212] | 500 to 3000 nM | ++++ (Emax>250) |
| Cc1ccc2c(-c3ccc(Cl)cc3F)nc([C@H]3CCO[C@@H](c4cnn(C)c4)C3)nc2n1 [Example 287, 4-(4-chloro-2-fluorophenyl)-7-methyl-2-((2R,4S)-2-(1-methyl-1H-pyrazol-4-yl)tetrahydro-2H-pyran-4-yl)pyrido[2,3-d] pyrimidine] | 500 to 3000 nM | +++ (Emax>150 and ≤250) |
| Cc1ccc2c(-c3ccc(Cl)cc3F)nc(N3CCO[C@@H](c4cnn(C)c4)C3)cc2c1 [Example 147, 1-(4-chloro-2-fluorophenyl)-6-methyl-3-((2S)-2-(1-methyl-1H-pyrazol-4-yl)-4-morpholinyl) isoquinoline] | 3000 to 100000 nM | ++++ (Emax>250) |
| Cc1nc2nc(N3CCO[C@@H](c4cnn(C)c4)C3)nc(N3CC(F)C3)c2nc1C [Example 29, 4-(3-fluoro-1-azetidinyl)-6,7-dimethyl-2-((2S)-2-(1-methyl-1H-pyrazol-4-yl)-4-morpholinyl)pteridine] | 3000 to 100000 nM | – |
| Cc1cnc2c(-c3ccc(Cl)cc3F)nc([C@@H]3CCO[C@H](c4cnn(C5CC5)c4)C3)nc2n1 [Example 270, 4-(4-chloro-2-fluorophenyl)-2-((2S,4R)-2-(1-cyclopropyl-1H-pyrazol-4-yl)tetrahydro-2H-pyran-4-yl)-7-methylpteridine] | 500 to 3000 nM | +++ (Emax>150 and ≤250) |
| Cc1cnc2cc(N3CCO[C@@H](c4cnn(C)c4)C3)nc(-c3ccc(Cl)cc3F)c2n1 [Example 74, 5-(4-chloro-2-fluorophenyl)-3-methyl-7-((2S)-2-(1-methyl-1H-pyrazol-4-yl)-4-morpholinyl)pyrido[3,4-b]pyrazine] | 50 to 500 nM | ++++ (Emax>250) |
| Cc1ccc2c(-c3ccc(Cl)cc3F)nc([C@@H]3CCO[C@H](c4cnn(C)c4)C3)nc2n1 [Example 288, 4-(4-chloro-2-fluorophenyl)-7-methyl-2-((2S,4R)-2-(1-methyl-1H-pyrazol-4-yl)tetrahydro-2H-pyran-4-yl)pyrido[2,3-d] pyrimidine] | ≤ 50 nM | ++ (Emax>100 and ≤150) |
| Cc1nc2cc([C@H]3CCO[C@@H](c4cnn(C5CC5)c4)C3)nc(-c3ccc(Cl)cc3F)c2nc1C [Example 296, 5-(4-chloro-2-fluorophenyl)-7-((2R,4S)-2-(1-cyclopropyl-1H-pyrazol-4-yl)tetrahydro-2H-pyran-4-yl)-2,3-dimethylpyrido[3,4-b]pyrazine] | 3000 to 100000 nM | – |
| Cc1nc2cc([C@@H]3CCO[C@H](c4cnn(C5CC5)c4)C3)nc(-c3ccc(Cl)cc3F)c2nc1C [Example 297, 5-(4-chloro-2-fluorophenyl)-7-((2S,4R)-2-(1-cyclopropyl-1H-pyrazol-4-yl)tetrahydro-2H-pyran-4-yl)-2,3-dimethylpyrido[3,4-b]pyrazine] | 3000 to 100000 nM | – |
| Cc1cnc2c(-c3ccc(F)cc3F)nc(N3CCO[C@@H](c4cnn(C5CC5)c4)C3)nc2n1 [Example 7, 2-((2S)-2-(1-cyclopropyl-1H-pyrazol-4-yl)-4-morpholinyl)-4-(2,4-difluorophenyl)-7-methylpteridine] | ≤ 50 nM | +++ (Emax>150 and ≤250) |
| Cc1ccc2c(-c3ccc(Cl)cc3F)cc(N3CCO[C@@H](c4cnn(C)c4)C3)nc2n1 [Example 156, 4-(4-chloro-2-fluorophenyl)-7-methyl-2-((2S)-2-(1-methyl-1H-pyrazol-4-yl)-4-morpholinyl)-1,8-naphthyridine] | 50 to 500 nM | +++ (Emax>150 and ≤250) |
| Cc1cnc2c(-c3ccc(Cl)cc3F)nc([C@H]3CCO[C@H](c4cnn(C)c4)C3)cc2n1 [Example 246, 5-(4-chloro-2-fluorophenyl)-2-methyl-7-((2S,4S)-2-(1-methyl-1H-pyrazol-4-yl)tetrahydro-2H-pyran-4-yl)pyrido[3,4-b] pyrazine] | 3000 to 100000 nM | +++ (Emax>150 and ≤250) |
| Cc1nc2cc(N3CCO[C@@H](c4cnn(C)c4)C3)cc(-c3ccc(F)cc3F)c2nc1C [Example 164, 5-(2,4-difluorophenyl)-2,3-dimethyl-7-((2S)-2-(1-methyl-1H-pyrazol-4-yl)-4-morpholinyl) quinoxaline] | ≤ 50 nM | ++++ (Emax>250) |
| Cc1nc2nc(N3CCO[C@@H](c4cnn(C)c4)C3)nc(-c3ccc(C(F)(F)F)cc3F)c2nc1C [Example 17, 4-(2-fluoro-4-(trifluoromethyl)phenyl)-6,7-dimethyl-2-((2S)-2-(1-methyl-1H-pyrazol-4-yl)-4-morpholinyl)pteridine] | ≤ 50 nM | ++++ (Emax>250) |
| Cc1nc2cc([C@@H]3CCO[C@@H](c4cnn(C)c4)C3)nc(-c3ccc(Cl)cc3F)c2nc1C [Example 245, 5-(4-chloro-2-fluorophenyl)-2,3-dimethyl-7-((2R,4R)-2-(1-methyl-1H-pyrazol-4-yl)tetrahydro-2H-pyran-4-yl)pyrido[3,4-b]pyrazine] | 3000 to 100000 nM | ++++ (Emax>250) |
| Cc1ccc(-c2nc([C@@H]3CCO[C@H](c4ccnc(C)c4)C3)nc3nc(C)c(C)cc23)c(F)c1 (single isomer, unassigned) [Example 223] | 50 to 500 nM | ++++ (Emax>250) |
| Cc1cnc2c(-c3ccc(Cl)cc3F)nc(N3CCO[C@@H](c4cnn(C)c4)C3)cc2n1 [Example 73, 5-(4-chloro-2-fluorophenyl)-2-methyl-7-((2S)-2-(1-methyl-1H-pyrazol-4-yl)-4-morpholinyl)pyrido[3,4-b]pyrazine] | 50 to 500 nM | ++++ (Emax>250) |
| Cc1nc2nc(N3CCC(F)(F)[C@@H](c4cnn(C)c4)C3)nc(-c3ccc(Cl)cc3F)c2nc1C (single isomer, unassigned) [Example 123] | ≤ 50 nM | +++ (Emax>150 and ≤250) |
| Cc1nc2nc(N3CCO[C@@H](c4cnn(C)c4)C3)nc(N3CCC(C)(C)C3)c2nc1C [Example 72, 4-(3,3-dimethyl-1-pyrrolidinyl)-6,7-dimethyl-2-((2S)-2-(1-methyl-1H-pyrazol-4-yl)-4-morpholinyl)pteridine] | 500 to 3000 nM | + (Emax>45 and ≤100) |
